These results are taken from patent publication US8012974B2, “Pyrrolopyrazinyl urea kinase inhibitors” (Roche Palo Alto LLC, priority 2008, dated 2011).

In the assay the target is T1, JAK3: Recombinant human kinase domain (810-1124) (Homo sapiens, UniProt P52333).
T1 construct: JAK3: Recombinant human kinase domain (810-1124); made in house
Briefly: Determination of IC50 of Janus Kinase (JAK) inhibition, JAK3, radioactive end-point assay with 33P-ATP. The note with it: no additive; 0.1 nM JAK3, ATP 1.5 uM, peptide 50 uM, 20 minutes; read-out: Ic50 h-jak3-sf21-c: no additive. The assay is classed as biochemical.

T1 sequence (P52333 810-1124): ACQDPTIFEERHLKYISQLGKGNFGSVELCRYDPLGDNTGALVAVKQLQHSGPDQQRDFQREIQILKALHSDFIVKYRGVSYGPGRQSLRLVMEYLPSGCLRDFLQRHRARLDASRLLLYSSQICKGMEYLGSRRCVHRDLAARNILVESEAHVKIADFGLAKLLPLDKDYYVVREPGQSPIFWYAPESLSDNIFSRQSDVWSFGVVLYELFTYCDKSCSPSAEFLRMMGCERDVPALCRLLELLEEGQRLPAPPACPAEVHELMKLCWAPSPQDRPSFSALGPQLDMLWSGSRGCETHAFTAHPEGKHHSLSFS
Text: Determination of IC50 of Janus Kinase (JAK) Inhibition:
Enzymes and peptide substrate used are described below: • JAK1: Recombinant human kinase domain (866-1154) from Invitrogen (Cat # PV4774) • JAK3: Recombinant human kinase domain (810-1124) made in house by Roche Palo Alto • JAK2: Recombinant human kinase domain (808-1132) from Millipore (Cat # 14-640) • Substrate: N-terminally biotinylated 14-mer peptide derived from activation loop of JAK1 with sequence of the peptide substrate: Biotin-[sequence]
Assay conditions used are described below: • Assay Buffer: JAK Kinase Buffer: 50 mM Hepes [pH 7.2], 10 mM MgCl2, 1 mM DTT, 1 mg/ml BSA. The assay is carried out in this buffer. • Assay Format The kinase activity of all three JAK kinases is measured using a radioactive, end-point assay and with trace amounts of ^33P-ATP. The assays are carried out in 96-well polypropylene plates. Experimental Method:
All concentrations are final in the reaction mixture and all incubations are carried at room temperature. […] 1 wash with water. • 6) Washed plates are dried in a 60° C. oven for between 1 to 2 hours. • 7) 70 ul of Microscint 20 scintillation fluid is added to each well of filter plates and after at least 30 minutes of incubation, radioactive counts are measured in a Perkinelmer microplate scintillation counter.

Broadly, the IC50 is the concentration that inhibits the measured activity by half. For `O=C(NCC1CCCCC1)Nc1cnc2[nH]ccc2n1` [Compound I-6, 1-Cyclohexylmethyl-3-(5H-pyrrolo[2,3-b]pyrazin-2-yl)-urea], the half-maximal inhibitory concentration (IC50) was 326 nM.

As for `O=C(NCCc1ccccc1)Nc1cnc2[nH]ccc2n1` [Compound I-10, 1-Phenethyl-3-(5H-pyrrolo[2,3-b]pyrazin-2-yl)-urea], the IC50 came out at 144 nM.
